In ChEMBL document CHEMBL3507680, “University of Dundee, Gates Library screen for HepG2 cell viability” one finds cytotoxicity data, which are given here for 99 compounds.

SMILES strings stand for the structures.

This data set in a line: Human HepG2 cell viability assay in 384 well format. The data set is classed as toxicity, cell-based. Further details: dose 125 nL, time 70.5 hour; cytotoxicity at 70.5 h: concentration not given beside the values. Conditions: HepG2 cells, read-out: Inhibition.
As to `CC(C)CC(NC(=O)OC(C)(C)C)C(N)=O` (centres undefined), the cytotoxicity at 70.5 h stood at 20.5%.
Take `c1cc(-c2c[nH]c([C@@H]3COCCN3Cc3csnn3)n2)ccn1`: the cytotoxicity at 70.5 h was determined as 12.8%.
As for `CC(C)CCC(=O)Nc1ncn(CC(=O)N2CCCCCC2)n1`, the cytotoxicity at 70.5 h was -2.61%.
Then `Cc1cc(C(=O)N2CCNC(=O)C2)c(C)n1Cc1ccccn1`, with -5.56%; and `CC(C)Nc1ccc(-c2ccnc3c2ccn3C)nn1`, with 15.5%.
As for `CCN(CC)[C@@H]1CN(Cc2nccn2C)[C@@H]2CCCO[C@H]12`, the cytotoxicity at 70.5 h is -3.21%.
In the case of `CCOC(=O)[C@@H]1[C@@H](c2ccccc2)CN2CCN(S(C)(=O)=O)C[C@H]12`, the cytotoxicity at 70.5 h was -6.56%.
Consider `c1cnc(N2CCC(c3nccn3CC3CC3)CC2)nc1`, for which the cytotoxicity at 70.5 h is -2.28%.
Regarding `CC(C)Cc1noc(CN2CCOCC2)n1`, the cytotoxicity at 70.5 h was -0.996%.
Regarding `CC(=O)Nc1ccc(S(=O)(=O)Nc2c(F)cccc2F)cc1`, the cytotoxicity at 70.5 h amounted to 1.02%.
For the compound `Cc1ccc(CN2CCCn3c(nc(CN4CCCC4)cc3=O)C2)s1`, the cytotoxicity at 70.5 h is -8.86%.
`Cc1cccc(NC(=O)c2ccc(-n3cncn3)nn2)n1`: the cytotoxicity at 70.5 h was -1.44%.
Consider `O=C(c1ccc2nccn2c1)N1CCC(CCn2cccn2)CC1`, for which the cytotoxicity at 70.5 h was -9.36%.
For the compound `Cc1ccc(-n2nnc(C(=O)NC(C)C)c2C2CC2)cc1`, the cytotoxicity at 70.5 h is -4.09%.
On to `CS(=O)(=O)c1ccc(C(=O)N2CCCC(n3ccnc3)C2)cc1` (centres undefined), for which the cytotoxicity at 70.5 h was -10.2%.
In the case of `Cc1ccc(CN2CCOCC3(CCN(Cc4cccs4)C3)C2)o1` (centres undefined), the cytotoxicity at 70.5 h was determined as 0.0959%.
For `O=C(c1nc2c(s1)CCCN2C(=O)C1CC1)N1CCOCC1`, the cytotoxicity at 70.5 h was -6.48%.
`Cc1nc(CN[C@H]2CCCN(C(=O)OC(C)(C)C)C2)cs1`: the cytotoxicity at 70.5 h was -3.34%.
For the compound `Cc1ccc(N2C[C@@H]3OCCN(Cc4c(C)noc4C)[C@@H]3C2)nn1`, the cytotoxicity at 70.5 h was -1.63%.
As to `CCn1cnnc1CNC(=O)C1COc2ccc(Cl)cc2C1` (centres undefined), the cytotoxicity at 70.5 h is -3.41%.
Then `O=C(NCC1CCN(CCc2ccccc2)C1)c1cc(Cl)c[nH]1` (centres undefined), with 2.19%; and `Cc1nc(CCNC(=O)c2cc(C(C)C)nn2C)sc1C`, with -10.1%; and `CN1CC[C@]2(CN(S(C)(=O)=O)C[C@H]2c2ccccc2)C1=O`, with 3.8%.
The value for `COCC1CN(C(=O)CNC(C)=O)Cc2ncnn2C1` (centres undefined) was -8.02%; that for `Cc1cccc2c1nc1n2[C@@H](CNC(=O)c2ccncc2)COC1` was -3.38%; that for `Cc1nc(CN(C)C2CCN(CC3CCOCC3)C2)no1` (centres undefined) was -2.15%.
Take `CCCC(O)CN1CCC(=O)N(C)Cc2cc(F)ccc21` (centres undefined): the cytotoxicity at 70.5 h is 18.5%.
Turning to `Cn1cc(-c2ncc3c(c2C(=O)O)CCN(Cc2ccccn2)C3)cn1`, the cytotoxicity at 70.5 h was -1.31%.
With `O=C(CC1CC2(CCN(CC3CC3)CC2)Oc2ccccc21)NC1CC1` (centres undefined), the cytotoxicity at 70.5 h is -5.53%.
For `Cc1ccc(N2CCO[C@@H]3CN(Cc4cccc(C)n4)CC[C@@H]3C2)nn1`, the cytotoxicity at 70.5 h was -3.06%.
Then `CC(C)n1cnnc1CN(C)C(=O)c1cccnc1O`, with -4.11%.
With `CC(C)(C)CCCC(=O)NS(=O)(=O)CC1CC1`, the cytotoxicity at 70.5 h is -0.428%.
With `CC(C)Cn1cnnc1C1CCCN1C(=O)OC(C)(C)C` (centres undefined), the cytotoxicity at 70.5 h is -0.156%.
Then `CN(C)C(C(=O)NCC1(O)CCCCC1)c1cccc(F)c1` (centres undefined), with -2.16%; and `Cc1nn(C)c(N(C)C)c1CNC1CCOc2ccccc21` (centres undefined), with 1.15%.
For the compound `CCn1cnnc1CNC(=O)N1CCOC(c2ccccc2Cl)C1` (centres undefined), the cytotoxicity at 70.5 h was -3.84%.
For `CN(Cc1ccccc1O)CC1CCCN(CCc2ccc(Cl)cc2)C1` (centres undefined), the cytotoxicity at 70.5 h was -2.45%.
On to `CN(C)c1ncccc1CNC(=O)NCc1cccs1`, for which the cytotoxicity at 70.5 h was found to be 1.41%.
For `CC(C(=O)N(Cc1ccc(F)cc1)CC(F)(F)F)S(C)(=O)=O` (centres undefined), the cytotoxicity at 70.5 h was -1.63%.
Then `CC(C)(C)c1cc(NC(=O)C2CCCO2)n(-c2ccccn2)n1` (centres undefined), with -2.77%; and `Cc1cnn(CC2CCCN2Cc2nc(C)c3ccccc3n2)c1` (centres undefined), with 1.46%.
Regarding `Cc1nc(CN2CCO[C@@H]3CN(Cc4cccs4)C[C@@H]3C2)cs1`, the cytotoxicity at 70.5 h was -4.54%.
As for `O=C(NC1CC1)[C@H]1CC[C@@H]2[C@@H](CCN2CCOCc2ccccc2)O1`, the cytotoxicity at 70.5 h is -8.73%.
Take `CO[C@H]1CCN(Cc2cnn(C)c2)[C@@H]2CN(Cc3ccncc3)C[C@H]12`: the cytotoxicity at 70.5 h is -6.62%.
Then `O=C(CN1CCC(c2nnc(C(F)(F)F)o2)CC1)NCc1ccccc1`, with -0.907%; and `CCCc1nnc(N2CCC(N3CCCC(O)C3)CC2)o1` (centres undefined), with 7.96%; and `CC(=O)N1N=C(c2ccco2)OC1C(=O)N(C)CCc1ccccc1` (centres undefined), with 20.4%.
In the case of `CC(C)OC(=O)c1ccc(Cl)c(NC(=O)NCCN2CCOCC2)c1`, the cytotoxicity at 70.5 h is -7.91%.
As to `c1cc2c(cc1CN1CC[C@H]3CO[C@H](CN4CCCC4)[C@H]3C1)OCO2`, the cytotoxicity at 70.5 h is -1.72%.
In the case of `Cc1nc(CNC(=O)N2CCN(c3ccc(Cl)cn3)CC2)no1`, the cytotoxicity at 70.5 h is 3.34%.
`CC(=O)c1ccc(NCc2cc3n(n2)CCCN(S(C)(=O)=O)C3)nc1`: the cytotoxicity at 70.5 h is -1.18%.
`Cc1ccccc1CS(=O)(=O)CC(=O)NC1CCCCNC1=O` (centres undefined): the cytotoxicity at 70.5 h was -11.3%.
In the case of `c1ccc(CN2CCCC3(CCN(Cc4cccs4)C3)C2)nc1` (centres undefined), the cytotoxicity at 70.5 h is -7.54%.
As for `O=C(O)c1cn(CC2CCCN(c3cnc4ccccc4n3)C2)nn1` (centres undefined), the cytotoxicity at 70.5 h is -3.54%.
The value for `COc1ccc(C(=O)N(C)Cc2nnc3ccccn23)c(OC)c1OC` was -11.4%; that for `O=C(c1ccoc1)N1CCCC1C1CCN(Cc2ccccc2)CC1` (centres undefined) was 23.5%.
As to `COc1ccc(OC)c2c(C)cc(N(CCO)CCO)nc12`, the cytotoxicity at 70.5 h was found to be 19.5%.
On to `c1cc(CNCc2ccc(Cn3cncn3)cc2)c2c(c1)OCCO2`, for which the cytotoxicity at 70.5 h is -11.4%.
For `Cc1ncc2c(n1)CN(Cc1nc3c(F)cccc3[nH]1)CC2`, the cytotoxicity at 70.5 h is -2.01%.
Regarding `Cc1ccccc1OCC(O)CN1CCC(Cn2cccn2)CC1` (centres undefined), the cytotoxicity at 70.5 h worked out at 2.37%.
As to `Cc1nn(C)c(N(C)C)c1CNCc1ccc(N(C)C)nc1`, the cytotoxicity at 70.5 h was -2.4%.
Turning to `O=c1cc(CN2CCCC2)nc2n1CCCN(CC1CCOCC1)C2`, the cytotoxicity at 70.5 h is -13.6%.
Then `CC(=O)N1CCC(c2cncc(N3CCCCCC3)n2)CC1`, with -17.2%.
Consider `Cc1nn(CCO)c(C)c1CNC1CCOc2ccccc21` (centres undefined), for which the cytotoxicity at 70.5 h was -2.7%.
On to `Cn1ccnc1C(=O)N1CCC2(CC1)CC(Oc1cccnc1)CO2` (centres undefined), for which the cytotoxicity at 70.5 h is -9.75%.
Turning to `CCn1cc2c(n1)CN(Cc1cnn(C)c1)CC2COCC1CC1` (centres undefined), the cytotoxicity at 70.5 h was -11.6%.
The value for `Cc1csc(CCNC(=O)N2CCC(NC(=O)OC(C)(C)C)CC2)n1` was -11.5%; that for `O=C(c1cnccn1)N1CCCC2(CCN(Cc3cccnc3)C2)C1` (centres undefined) was -4.19%.
Regarding `CN(C)CCNc1cc(-c2ncccn2)c2cc[nH]c2n1`, the cytotoxicity at 70.5 h is -6.11%.
The value for `CNC(=O)c1ccc(C(=O)N2CCCC2c2cnn(C)c2)cn1` (centres undefined) was 1.99%.
Regarding `O=S(=O)(c1cccnc1)N1C[C@@H]2CC[C@H](C1)N(Cc1ccccn1)C2`, the cytotoxicity at 70.5 h was -5.11%.
On to `Cc1nc(CN2CC(=O)N(C)c3ccccc3C2=O)no1`, for which the cytotoxicity at 70.5 h was -1.75%.
Consider `Cc1nc(N2CCCC2)nc2c1CCN(C(=O)CN(C)C)CC2`, for which the cytotoxicity at 70.5 h is -3.18%.
With `Cn1ccc(NCc2cc3cc(F)ccc3o2)n1`, the cytotoxicity at 70.5 h is -4.66%.
In the case of `O=S(=O)(N1CCCCCC1)N1CCCN(CC2CCCO2)CC1` (centres undefined), the cytotoxicity at 70.5 h is -1.63%.
For `O=C1CC(c2cccc(O)c2)c2sc(C(=O)O)c(-c3ccccc3)c2N1` (centres undefined), the cytotoxicity at 70.5 h is 26.4%.
With `Cc1cnccc1CNCc1ccc(OC23CCCN(CC2)C3)cc1` (centres undefined), the cytotoxicity at 70.5 h is -6.06%.
Then `O=C(c1ccc2[nH]ccc2c1)N1CCn2cnc(COCC3CC3)c2C1`, with -4.35%.
Consider `c1nc(CCC2CCCN2)cc(N2CCCCCC2)n1` (centres undefined), for which the cytotoxicity at 70.5 h worked out at 0.142%.
The value for `CCOc1ccc2[nH]c(=O)c(CN3CCCC3c3ccccn3)cc2c1` (centres undefined) was -11.8%; that for `O=C(CCCn1ccnc1)NC1CCCN(c2ccccc2Cl)C1` (centres undefined) was -18%; that for `CN(C)CCNCC1COCc2c(-c3ccnn3C)nnn2C1` (centres undefined) was 16.1%.
`CC(=O)N1CC[C@H]2N(C)CC[C@@]2(C(=O)Nc2cccnc2)CC1`: the cytotoxicity at 70.5 h is -8.43%.
Take `CSc1ccc(C(=O)N2CC(=O)N(CC(C)(C)C)CC(O)C2)cc1` (centres undefined): the cytotoxicity at 70.5 h is -0.234%.
The value for `Cn1cnc(S(=O)(=O)N2CCCC2c2cnccn2)c1` (centres undefined) was -9.6%; that for `Cn1ccnc1CN1CCC2(CC1)CC(Oc1cccnc1)C2` was 1.72%; that for `Cc1cnc(N2CCN(C(C)C(N)=O)CC2)nc1` (centres undefined) was -1.41%.
On to `CCc1nc(CCn2cc(-c3nccn3C)nn2)no1`, for which the cytotoxicity at 70.5 h is -9.68%.
Consider `CC1(C)Cc2ccc(C(=O)NC3CCOCC3)c(O)c2O1`, for which the cytotoxicity at 70.5 h was 7.2%.
The value for `CCCc1nnc(N2CCN(Cc3ccccc3OC)CC2)o1` was 23.6%; that for `CNc1cc2c(nn1)CCN(C(=O)c1ccc(-n3cccn3)nc1)C2` was -14.4%; that for `O=C(NCC1CCCO1)c1csc(Cc2ccccc2)n1` (centres undefined) was 50.7%.
For the compound `CC(O)CN1CCN(C(=O)CN(C)c2cnccn2)CC1` (centres undefined), the cytotoxicity at 70.5 h is -8.51%.
Regarding `CSCC1CCCN1CCc1ccncc1` (centres undefined), the cytotoxicity at 70.5 h was determined as 27.5%.
With `COCC(=O)N1CCCN(c2ncnc3c2CCNCC3)CC1`, the cytotoxicity at 70.5 h was -5.03%.
As to `CC(C)Oc1cccc(CC(=O)NC2CCN(CC(N)=O)CC2)c1`, the cytotoxicity at 70.5 h is -10.1%.
The value for `O=C(NCCC(O)c1cccs1)c1ccco1` (centres undefined) was -9.55%.
As to `Cc1cc(C)nc(N2CCN(Cc3cc4n(n3)CCNC4)CC2)n1`, the cytotoxicity at 70.5 h was -8.76%.
Take `CCn1cc(-c2nn3c(C(C)C)nnc3s2)c(C)n1`: the cytotoxicity at 70.5 h is -14.2%.
